Structures can show the parent of a compound that is named as a salt.
Legend:
MMP-9 = target: T1, MMP-9 (Homo sapiens, UniProt P14780); assay: In vitro MMP inhibition, Ki determination (fluorogenic substrate II); format: biochemical; conditions: human recombinant enzyme; 4 μM substrate II; room temperature, 1 hr
T1 construct: made in house; host or cells: MMP-9-transfected HT1080 cells (spent media)
Experimental: (§1) Several hydroxamic acids and salts thereof were analyzed in in vitro assays to determine their ability to inhibit the MMP cleavage of peptide substrates. […] and IC50 constants were calculated from the assayed hydroxamic acid-MMP interactions.
(§2) Human recombinant MMP-1, MMP-2, MMP-9, MMP-13, and MMP-14 were used in this assay. All enzymes were prepared in Assignee's laboratories following usual laboratory procedures. Protocols for the preparation and use of these enzymes are available in the scientific literature. See, e.g., Enzyme Nomenclature (Academic Press, San Diego, Calif., 1992) (and the citations therein). See also, Freije et al., “Molecular cloning and expression of collagenase-3, a novel human matrix metalloproteinase produced by breast carcinomas,” J Biol. Chem., 269(24), 16766-16773 (1994).
The MMP-9 proenzyme was purified by gelatin Sepharose chromatography from spent media of MMP-9-transfected HT1080 cells provided by Dr. Howard Welgus of Washington University (St. Louis, Mo.).
(§3) All MMPs were activated using 4-aminophenylmercuric acetate (“APMA”, Sigma Chemical, St. Louis, Mo.) or trypsin. MMP-9 also was activated using human recombinant MMP-3 (purified in Assignee's laboratory following standard cloning and purification techniques).
(§4) Two fluorogenic, methoxycoumarin-containing polypeptide substrates were used in the MMP inhibition assays: [drawing 427] Here, “Dpa” is 3-(2,4-dinitrophenyl)-L-2,3-diaminopropionyl group, and “MCA” is 7-methoxycoumarin-4-yl acetyl. Substrate (I) was purchased from Baychem (Redwood City, Calif.), and substrate II was prepared Assignee's laboratory. Substrate I was used in the IC50 determination assays, while substrate II was used in the Ki determination assays. In the absence of MMP inhibitory activity, either substrate is cleaved at the Gly-Leu peptide bond. This cleavage separates the highly fluorogenic peptide from the 2,4-dinitrophenyl quencher, thus resulting in increase of fluorescent intensity.
(§5) The stock solutions of the assayed hydroxamic acids (or salts thereof) were prepared in 1% dimethyl sulfoxide (DMSO). These stock solutions were diluted in Buffer A (100 mM Tris-HCl, 100 mM NaCl, 10 mM CaCl2, 0.05% polyoxyethylene 23 lauryl ether, pH 7.5) to obtain solutions with different hydroxamic acid concentrations, i.e., assay solutions with different concentrations of the assayed MMP inhibitory compound. The experiment controls contained the same amount of Buffer A/DMSO as the assayed sample, but contained no hydroxamic acid (or salt thereof).
The assays from which the Ki determinations were made were performed as follows. The assayed hydroxamic acid samples were incubated in separate wells of untreated white polystyrene plates (Nunc Nalgene International, Rochester, N.Y.), and analyzed on a Tecan SpectraFlour Plus plate reader. The excitation wavelength was 330 nm, and the emission wavelength—420 nm. All samples (assayed hydroxamic acids and controls) were incubated in separate plate wells at room temperature for 1 hr in the presence of 4 μM of MMP substrate (II). In the absence of MMP inhibitory activity, substrate II was cleaved at the Gly-Leu bond resulting in an increase of relative fluorescence. Inhibition was observed as a reduced rate of this increase in relative fluorescence. The various hydroxamic acids were analyzed using a single low enzyme concentration with a single substrate concentration fixed at or below the Km. This protocol is a modification of method by Knight et al., FEBS Lett., 296(3), 263-266 (1992). Apparent inhibitory constants were determined by non-linear regression of reaction velocity as a function of inhibitor and enzyme concentration using Morrison's equation, as described by Kuzmic, Anal. Biochem. 286, 45-50 (2000). Modifications were made in the non-linear regression method to allow a common control reaction rate and effective enzyme concentration to be shared between all dose-response relationships on a given assay plate. […]

MMP-14 = target: T2, MMP-14 (Homo sapiens, UniProt P50281); assay: as above; format: biochemical; conditions: human recombinant enzyme (catalytic domain); 4 μM substrate II; room temperature, 1 hr; read-out: MMP-14 Ki
T2 construct: The catalytic domain enzyme was expressed in E. coli inclusion bodies, solubilized in urea; made in house
Experimental: as §1, §2
The MMP-14 full length cDNA was provided by Dr. Gregory Goldberg of Washington University (St. Louis, Mo.). The catalytic domain enzyme was expressed in E. coli inclusion bodies, solubilized in urea, purified on a preparative […] reverse phase HPLC column, and then refolded in the presence of zinc acetate and purified for use.
as §3, §4, §5
The assays from which the Ki determinations were made were performed as follows. The assayed hydroxamic acid samples were incubated in separate wells of untreated white polystyrene plates (Nunc Nalgene International, Rochester, N.Y.), and analyzed on a Tecan SpectraFlour Plus plate reader. The excitation wavelength was 330 nm, and the emission wavelength—420 nm. All samples (assayed hydroxamic acids and controls) were incubated in separate plate wells at room temperature for 1 hr in the presence of 4 μM of MMP substrate (II). In the absence of MMP inhibitory activity, substrate II was cleaved at the Gly-Leu bond resulting in an increase of relative fluorescence. Inhibition was observed as a reduced rate of this increase in relative fluorescence. The various hydroxamic acids were analyzed using a single low enzyme concentration with a single substrate concentration fixed at or below the Km. This protocol is a modification of method by Knight et al., FEBS Lett., 296(3), 263-266 (1992). Apparent inhibitory constants were determined by non-linear regression of reaction velocity as a function of inhibitor and enzyme concentration using Morrison's equation, as described by Kuzmic, Anal. Biochem. 286, 45-50 (2000).

T1 sequence (P14780 107-707 limits assumed): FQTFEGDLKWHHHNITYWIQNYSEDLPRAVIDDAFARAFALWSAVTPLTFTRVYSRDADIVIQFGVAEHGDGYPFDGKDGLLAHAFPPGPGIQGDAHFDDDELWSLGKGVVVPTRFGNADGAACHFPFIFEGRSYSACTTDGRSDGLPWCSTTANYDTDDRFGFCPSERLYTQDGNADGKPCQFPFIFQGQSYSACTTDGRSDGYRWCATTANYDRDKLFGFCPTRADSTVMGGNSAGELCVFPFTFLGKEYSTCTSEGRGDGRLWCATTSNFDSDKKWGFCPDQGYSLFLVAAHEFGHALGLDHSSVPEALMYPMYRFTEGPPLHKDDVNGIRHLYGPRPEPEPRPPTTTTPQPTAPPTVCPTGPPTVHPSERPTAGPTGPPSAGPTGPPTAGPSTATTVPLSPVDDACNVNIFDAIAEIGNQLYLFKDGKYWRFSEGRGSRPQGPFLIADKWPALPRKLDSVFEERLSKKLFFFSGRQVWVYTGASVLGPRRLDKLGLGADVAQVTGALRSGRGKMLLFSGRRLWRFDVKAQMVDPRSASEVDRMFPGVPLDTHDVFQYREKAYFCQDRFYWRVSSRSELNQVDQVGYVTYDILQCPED

| Structure (SMILES) | Ki (MMP-9) | Ki (MMP-14) |
| --- | --- | --- |
| CCCCc1cnc(N2CCN(S(=O)(=O)C3(C(=O)NO)CCOCC3)CC2)cn1 [Example 1, 4-{[4-(5-butylpyrazin-2-yl)piperazin-1-yl]sulfonyl}-N-hydroxytetrahydro-2H-pyran-4-carboxamide Dihydrochloride] | 0.696 nM | 4290 nM |
| CCCCc1ccc(N2CCN(S(=O)(=O)C3(C(=O)NO)CCN(CCOC)CC3)CC2)cc1 [Example 5, 4-{[4-(4-butylphenyl)piperazin-1-yl]sulfonyl}-N-hydroxy-1-(2-methoxyethyl)piperidine-4-carboxamide Dihydrochloride] | 0.108 nM | 1550 nM |
| CCCCCc1ccc(N2CCN(S(=O)(=O)C3(C(=O)NO)CCN(CCOC)CC3)CC2)cc1 [Example 6, N-Hydroxy-1-(2-methoxyethyl)-4-{[4-(4-pentylphenyl)piperazin-1-yl]sulfonyl}piperidine-4-carboxamide Dihydrochloride] | 0.287 nM | 2300 nM |
| O=C(NO)C1(S(=O)(=O)N2CCN(c3ccc(OCCCC(F)(F)F)cc3)CC2)CCOCC1 [Example 7, N-hydroxy-4-({4-[4-(4,4,4-trifluorobutoxy)phenyl]piperazin-1-yl}sulfonyl)tetrahydro-2H-pyran-4-carboxamide Hydrochloride] | 7.35 nM | 4330 nM |
| COCCN1CCC(C(=O)NO)(S(=O)(=O)N2CCN(c3ccc(OCCCC(F)(F)F)cc3)CC2)CC1 [Example 9, N-hydroxy-1-(2-methoxyethyl)-4-({4-[4-(4,4,4-trifluorobutoxy)phenyl]piperazin-1-yl}sulfonyl)piperidine-4-carboxamide Dihydrochloride] | 2.76 nM | 5910 nM |
| O=C(NO)C1(S(=O)(=O)N2CCN(c3ccc(OCC4CC4)c(F)c3)CC2)CCN(C2CC2)CC1 [Example 10, 1-cyclopropyl-4-[[4-[4-(cyclopropylmethoxy)-3-fluorophenyl]-1-piperazinyl]sulfonyl]-N-hydroxy-4-piperidinecarboxamide, dihydrochloride] | 0.97 nM | 4340 nM |
| CCCCOc1ccc(N2CCN(S(=O)(=O)C3(C(=O)NO)CCN(CCOC)CC3)CC2)cc1F [Example 11, 4-[[4-(4-butoxy-3-fluorophenyl)-1-piperazinyl]sulfonyl]-N-hydroxy-1-(2-methoxyethyl)-4-piperidinecarboxamide, Dihydrochloride] | 2.67 nM | 3600 nM |
| CCCCCc1ccc(N2CCN(S(=O)(=O)C3(C(=O)NO)CCN(CCOC)CC3)CC2)cc1F [Example 13, 4-{[4-(3-fluoro-4-pentylphenyl)piperazin-1-yl]sulfonyl}-N-hydroxy-1-(2-methoxyethyl)piperidine-4-carboxamide Dihydrochloride] | 0.712 nM | 3520 nM |
| CCCCCc1ccc(C2CCN(S(=O)(=O)C3(C(=O)NO)CCN(CCOC)CC3)CC2)cc1 [Example 15, N-hydroxy-1-(2-methoxyethyl)-4-{[4-(4-pentylpheyl)piperidin-1-yl]sulfonyl}piperidine-4-carboxamide Hydrochloride] | 0.13 nM | 2960 nM |
| CCCCOc1ccc(C2CCN(S(=O)(=O)C3(C(=O)NO)CCN(CCOC)CC3)CC2)cc1 [Example 16, 4-{[4-(4-butoxyphenyl)piperidin-1-yl]sulfonyl}-N-hydroxy-1-(2-methoxyethyl)piperidine-4-carboxamide Hydrochloride] | 0.47 nM | 2930 nM |
| CCCCc1ccc(C2CCN(S(=O)(=O)C3(C(=O)NO)CCOCC3)CC2)s1 [Example 19, 4-{[4-(5-butylthien-2-yl)piperidin-1-yl]sulfonyl}-N-hydroxytetrahydro-2H-pyran-4-carboxamide] | 0.5 nM | 2190 nM |

Now from value to molecule:

| Ki (MMP-9) | Ki (MMP-14) | Structure (SMILES) |
| --- | --- | --- |
| 1.28 nM | 1940 nM | O=C(NO)C1(S(=O)(=O)N2CCN(c3ccc(OCC(F)(F)F)cc3)CC2)CCOCC1 [Example 2, N-hydroxy-4-({4-[4-(2,2,2-trifluoroethoxy)phenyl]piperazin-1-yl}sulfonyl)tetrahydro-2H-pyran-4-carboxamide Hydrochloride] |
| 0.93 nM | 1260 nM | CCOc1ccc(N2CCN(S(=O)(=O)C3(C(=O)NO)CCOCC3)CC2)cc1 [Example 3, 4-{[4-(4-ethoxyphenyl)piperazinyl]sulfonyl}perhydro-2H-pyran-4-carbohydroxamic Acid] |
| 0.739 nM | 954 nM | O=C(NO)C1(S(=O)(=O)N2CCN(c3ccc(OC(F)(F)C(F)F)cc3)CC2)CCOCC1 [Example 4, 4-({4-[4-(1,1,2,2-tetrafluoroethoxy)phenyl]piperazinyl}sulfonyl)perhydro-2H-pyran-4-carbohydroxamic Acid] |
| 1.65 nM | 468 nM | COc1ccc(-c2cnc(N3CCN(S(=O)(=O)C4(C(=O)NO)CCOCC4)CC3)nc2)cc1 [Example 8, N-hydroxy-4-({4-[5-(4-methoxyphenyl)pyrimidin-2-yl]piperazin-1-yl}sulfonyl)tetrahydro-2H-pyran-4-carboxamide Hydrochloride] |
| 1 nM | 1710 nM | O=C(NO)C1(S(=O)(=O)N2CCN(c3ccc(-c4ccccc4)c(F)c3)CC2)CCOCC1 [Example 12, 4-{[4-(2-fluoro-1,1′-biphenyl-4-yl)piperazin-1-yl]sulfonyl}-N-hydroxytetrahydro-2H-pyran-4-carboxamide Hydrochloride] |
| 20 nM | 9170 nM | COCCOc1ccc(N2CCN(S(=O)(=O)C3(C(=O)NO)CCOCC3)CC2)cc1 [Example 14, N-hydroxy-4-({4-[4-(2-methoxyethoxy)phenyl]piperazin-1-yl}sulfonyl)tetrahydro-2H-pyran-4-carboxamide Hydrochloride] |
| 1.01 nM | 7970 nM | O=C(NO)C1(S(=O)(=O)N2CCN(c3ccc(CCC(F)(F)C(F)(F)F)cc3)CC2)CCOCC1 [Example 17, N-hydroxy-4-({4-[4-(3,3,4,4,4-pentafluorobutyl)phenyl]piperazin-1-yl}sulfonyl)tetrahydro-2H-pyran-4-carboxamide Hydrochloride] |
| 0.398 nM | 1770 nM | O=C(NO)C1(S(=O)(=O)N2CCC(c3ccc(CCC(F)(F)C(F)(F)F)cc3)CC2)CCOCC1 [Example 18, N-hydroxy-4-({4-[4-(3,3,4,4,4-pentafluorobutyl)phenyl]piperidin-1-yl}sulfonyl)tetrahydro-2H-pyran-4-carboxamide] |

Source: patent US20050209278A1, “Piperidinyl- and piperazinyl-sulfonylmethyl hydroxamic acids and their use as protease inhibitors” (priority 2002, published 2005)
